Where a SMILES comes first, the peptide text is derived from it. Where no end group is shown, it is not given here.
Key:
[1] = test system: BALB/c mice (DNFB-induced dermatitis, auricle skin); experiment: DNFB-induced dermatitis in mouse earlobes; amount of water evaporation (Tewameter TM300) to evaluate the barrier function of keratin; format: in vivo
Procedure: A 1 mg portion of glycylprolylisoleucylglycylserine (SEQ ID NO: 6) (hereinafter, also referred to as “GPIGS”) (manufactured by AMERICAN PEPTIDE COMPANY, Inc., lot. CC-09-119) was weighed. This GPIGS [SEQ ID NO: 6] was dissolved by the addition of 300 μl of Otsuka distilled water for injection (manufactured by Otsuka Pharmaceutical Co., Ltd., cat. 322134). Then, this solution was mixed with 200 μl of propylene glycol (manufactured by Wako Pure Chemical Industries, Ltd., cat. 161-05006) and 500 μl of ethanol (manufactured by Wako Pure Chemical Industries, Ltd., cat. 057-00456) to prepare 1 mg/ml GPIGS [SEQ ID NO: 6] solution (1).
Seven-week-old mice (produced by Japan SLC. Inc, BALB/c line) were raised for 1 week and acclimatized.
A 10 μl portion (14.5 mg) of […] (manufactured by NACALAI TESQUE, INC., cat. 135-12) (DNFB) was added to 9.7 ml of (acetone:olive oil=3:1) solution to prepare 1.5 mg/ml DNFB solution.
A 25 μl portion of 1.5 mg/ml DNFB solution was applied five times (once a week) to each of the front and back sides of the left and right earlobes of the BALB/c mice (8-week-old).
From one day after the 4th DNFB solution application, 25 μl of the drug solution was applied once a day to each of the front and back sides of the left and right earlobes (in the 5th DNFB solution application, the GPIGS [SEQ ID NO: 6] solution (1) was applied 1 hour before DNFB application). Forty-eight hours after the 5th DNFB solution application, an amount of water evaporation in the auricle surfaces was measured with Tewameter TM300 (manufactured by Courage+Khazaka electronic GmbH.) to evaluate the barrier function of keratin (1-3) (the present invention).
The barrier function of keratin was also evaluated on (1-1) wherein the same procedures aforementioned were performed except that a (acetone:olive oil=3:1) solution was applied instead of the DNFB solution and (1-2) (Comparative Example) wherein the same procedures aforementioned were performed except that a solution containing the GPIGS [SEQ ID NO: 6] solution (1) except for GPIGS [SEQ ID NO: 6] was used.
All the experiments were conducted using five mice.
The data in FIG. 1 are indicated with mean±standard deviation (mean±S.E.). Statistical analysis was conducted by Student's t-test (Stat View J-4.02, Abacus Concepts Inc.). A significant level less than 5% (p<0.05) means that a significant difference is present.

[2] = test system: Hos:HR-1 mice (UVB-irradiated back skin); experiment: UVB-irradiated mouse back skin; amount of water evaporation (Tewameter TM300) to evaluate the barrier function of keratin; format: in vivo; details: for rate of increase in the total amount of water evaporation from the 1st day to the 10th day after UVB irradiation: 1 mg/ml ointment, increase of Comparative Example (5-2) over non-irradiated (5-1) defined as 100%
Procedure: A GPIGS [SEQ ID NO: 6] solution (1) was prepared in the same way as in Example 1.
Mice used were 10-week-old mice (produced by Japan SLC. Inc, Hos:HR-1 line) raised for 1 week or longer in the breeding room of National Institute of Advanced Industrial Science and Technology and acclimatized.
The backs of the mice fixed under pentobarbital anesthesia were irradiated with 150 mJ/cm^2 UVB for 5 days (once a day) to cause skin damage. A 100 μl portion of the drug solution was applied once a day immediately after UVB irradiation to each of the skin surfaces of the backs. An amount of water evaporation in the skin surfaces of the backs was measured with Tewameter TM300 (manufactured by Courage+Khazaka electronic GmbH.) to evaluate the barrier function of keratin.
All the experiments were conducted using four mice.
The data in FIG. 2 are indicated with mean±standard deviation (mean±S.E.). Statistical analysis was conducted by Student's t-test (Stat View J-4.02, Abacus Concepts Inc.). A significant level less than 5% (p<0.05) means that a significant difference is present. In this context, the open triangle denotes (2-1) without UVB irradiation; x denotes (2-2) (Comparative Example) using a solution containing the GPIGS [SEQ ID NO: 6] solution (1) except for GPIGS [SEQ ID NO: 6]; and the solid diamond denotes Example of the present application (2-3).

[3] = 1 mg/ml solution (water/propylene glycol/ethanol), 25 μl once a day on earlobes, 48 h after 5th DNFB application, vehicle control 13.11 (GPIGS experiment), 9.29 (IGS experiment)

Row | Compound | amount of water evaporation ([1]; 1 mg/ml ointment (3-3), base ointment control 8.42, no DNFB 1.83) [g/m^2/hr] | amount of water evaporation [1, 3] [g/m^2/hr] | amount of water evaporation ([1]; 3 mg/ml ointment (3-4), base ointment control 8.42, no DNFB 1.83) [g/m^2/hr] | barrier function of keratin compared with Example 1 ([1]; 3 mg/ml solution, otherwise as Example 1) | dermatitis of each mouse ([1]; ointment (10 mg GPIGS with Hiviswako 104, propylene glycol, diisopropanolamine, gentamycin, water), mice treated as in Examples 1 and 2) | rate of increase in the total amount of water evaporation from the 1st day to the 10th day after UVB irradiation [2] [%] | amount of water evaporation compared with Comparative Example (2-2) ([2]; 1 mg/ml solution, 100 μl once a day after 150 mJ/cm^2 UVB, following the fourth day after UVB irradiation)
1 | GPIGS [GPIGS, glycylprolylisoleucylglycylserine] | 5.23 | 11.30 | 3.89 | more excellent barrier function of keratin | improvement | 82.1 | significantly lower
2 | CC[C@H](C)[C@H](N)C(=O)NCC(=O)N[C@@H](CO)C(=O)O [IGS, isoleucylglycylserine] (H-Ile-Gly-Ser-OH) |  | 5.57 |  |  |  | 55.4 | 

From patent US7820625B2, “UV-induced dermatitis inhibitor and atopic dermatitis inhibitor” (National Institute of Advanced Industrial Science and …, priority 2005, dated 2010)
